Experimental data reported in article PMC3095316, “Differential expression pattern of an acidic 9/13-lipoxygenase in flower opening and senescence and in leaf response to phloem feeders in the tea plant” (BMC Plant Biology, 2010).
Read-outs that look alike come from different tables or passages of the source.

Biological target: T1, CsLOX1 (9/13-CsLOX1) (Camellia sinensis, UniProt A8W7J7)
T1 construct: gene lox1
T1 sequence (A8W7J7 1-861): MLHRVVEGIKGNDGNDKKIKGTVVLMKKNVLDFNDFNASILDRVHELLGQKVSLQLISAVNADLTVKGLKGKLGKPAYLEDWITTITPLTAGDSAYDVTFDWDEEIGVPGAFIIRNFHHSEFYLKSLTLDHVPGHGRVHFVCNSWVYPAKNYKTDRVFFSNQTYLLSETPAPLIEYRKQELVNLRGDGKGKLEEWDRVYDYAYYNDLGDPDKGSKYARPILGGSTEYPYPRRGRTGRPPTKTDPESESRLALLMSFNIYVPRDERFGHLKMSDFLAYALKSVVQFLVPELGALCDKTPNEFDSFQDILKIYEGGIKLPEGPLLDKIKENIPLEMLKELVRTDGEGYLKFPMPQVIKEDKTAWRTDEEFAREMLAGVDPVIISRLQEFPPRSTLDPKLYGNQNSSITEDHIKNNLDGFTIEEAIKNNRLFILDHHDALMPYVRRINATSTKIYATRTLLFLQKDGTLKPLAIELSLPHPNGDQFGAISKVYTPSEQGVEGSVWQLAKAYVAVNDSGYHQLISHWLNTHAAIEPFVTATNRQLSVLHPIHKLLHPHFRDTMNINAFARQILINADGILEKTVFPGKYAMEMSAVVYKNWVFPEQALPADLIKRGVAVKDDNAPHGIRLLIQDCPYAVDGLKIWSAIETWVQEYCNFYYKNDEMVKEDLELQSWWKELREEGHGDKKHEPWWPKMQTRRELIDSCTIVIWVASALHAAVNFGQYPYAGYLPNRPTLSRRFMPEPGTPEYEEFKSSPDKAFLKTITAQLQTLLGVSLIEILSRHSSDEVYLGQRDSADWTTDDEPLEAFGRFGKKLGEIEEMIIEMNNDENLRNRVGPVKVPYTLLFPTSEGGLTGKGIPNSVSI
Conditions: co-substrate O2, substrate 75-600 μM, pH and temperature of the kinetics not stated (optimum pH 3.6, 25°C)

Km [µM] | Km (linolenic acid isomer not printed (alpha taken from jasmonate context)) [µM] | SMILES
141 | – | CCCCC/C=C\C/C=C\CCCCCCCC(=O)O [linoleic acid]
– | 32.9 | CC/C=C\C/C=C\C/C=C\CCCCCCCC(=O)O [linolenic acid]
